Assay results as given in patent publication US10624948B2, “Use of cell-permeable peptide inhibitors of the JNK signal transduction pathway for the treatment of various diseases” (Xigen Inflammation Ltd., priority 2013, dated 2020).
Square brackets hold non-standard residues; d marks the D form. Ends that are not written are not given here.

Experiments:
[1] = system: Sprague-Dawley albino rats, light-induced photoreceptor cell death; assay type: in vivo
Description: The aim of this study was to investigate the dose effect of XG-102 on light-induced photoreceptor cell death.
Test item (XG-102: 30 mg/ml, 3 mg/ml, and 0.3 mg/ml) and vehicle (0.9% NaCl) were administered by intravitreal injection in right eyes the day before induction. The reference (Phenyl-N-test-Butylnitrone (PBN) (50 mg/kg)) and vehicle were intraperitoneally injected 30 min before induction then, 3 times during 12 hours of light exposition, then once after induction. Animals were placed in constant light (7000 lux) for 24 h. Electroretinograms (ERG) were recorded before light treatment and on days 9, 16 and 23 after induction. Eyes were then taken for histology and outer nuclear layer (ONL) thickness assessment. The table below summarizes the allocation of animals in treatment groups:
For the intravitreal injection animals were anesthetized by intramuscular injection of a mixture of xylazine/ketamine. Test item (5 μl) and vehicle (5 μl) were injected in the right eye. The injection was performed under an operating microscope in the supratemporal area at pars plana using a 33G-needle mounted on a 50 μl Hamilton. The filled syringe was mounted into the UltraMicroPump III to achieve accurate injection in microliter range. Reference and vehicle were injected intraperitoneally at a dose volume of 2.5 ml/kg using a 30G-needle mounted on a 1 ml-syringe.
Light Exposure: The rats that had been dark-adapted overnight were exposed for 24 hours to a continuous white fluorescent light (7000 lx) in clear plastic cages. Each cage contained one rat. After exposure, the rats returned to rearing cyclic light conditions.
ERG was recorded before induction and 7, 14 and 21 days after cessation of exposure (Days 9, 16 and 23) on right eyes of dark-adapted and anesthezied animals. The latency times (for a- and b-wave) and the a-wave and b-wave amplitudes were measured for each ERG; the latency times were expressed as millisecond and the a-wave and b-wave as a percentage of the baseline value obtained before light exposure. 15 min before measurement 10 μl Mydriaticum® (0.5% tropicamide) were instilled for pupillary dilatation.
Measurement of the ONL Thickness: After ERG testing, animal was euthanized by an overdose of pentobarbital and the right eyes were enucleated, fixed and embedded in paraffin. Sections (5 μm thick) were performed along the vertical meridian and stained with Trichrome-Masson. The vertical meridian included the optic nerve.

TC-3 cells = test: IL-1 induced pancreatic beta-cell death; assay type: cell-based; conditions: one single addition 1 μM
Description: Inhibition of IL-1 induced pancreatic beta-cell death by the D-TAT-IB1(s) peptide was analyzed. TC-3 cells were incubated as described above for 30 minutes with one single addition of the indicated peptides (1, μM), then IL-1 (10 ng/ml) was added.
Apoptotic cells were then counted after two days of incubation with IL-1 by use of Propidium Iodide and Hoechst 33342 nuclear staining. A minimum of 1,000 cells were counted for each experiment. Standard Error of the Means (SEM) are indicated, n=5.
Long term inhibition of IL-1P induced cell-death by the D-TAT-IB1 peptide was also analyzed. TC-3 cells were incubated as above for 30 minutes with one single addition of the indicated peptides (1 μM), then IL-1 (10 ng/ml) was added, followed by addition of the cytokine every two days. Apoptotic cells were then counted after 15 days of incubation with IL-1 by use of propidium iodide and Hoechst 33342 nuclear staining. […] A minimum of 1.000 cells were counted for each experiment.

TC-3 cell cultures = test: Cellular import of fluorescein labeled TAT and TAT-IB1(s) peptides; assay type: cell-based; conditions: labeled peptides 1 μM
Description: The ability of the L- and D-enantiomeric forms of TAT and TAT-IB1(s) peptides (“TAT-IB peptides”) to enter cells was evaluated. L-TAT, D-TAT, L-TAT-IB1(s), and D-TAT-IB1(s) peptides [SEQ ID NOs: 5, 6, 9 and 12, respectively] were labeled by N-terminal addition of a glycine residue conjugated to fluorescein. Labeled peptides (1 μM) were added to TC-3 cell cultures, which were maintained as described in Example 3. At predetermined times cells were washed with PBS and fixed for five minutes in ice-cold methanol-acetone (1:1) before being examined under a fluorescence microscope. Fluorescein-labeled BSA (1 μM, 12 moles/mole BSA) was used as a control.
Little to no signal was present at 48 hours.
Fluorescent signals from these all-D retro-inverso peptides were still very strong 1 week later, and the signal was only slightly diminished at 2 weeks post treatment.

[2] = system: JNK signaling in HeLa cells (GAL-Jun, MKK4/MKK7); test: GAL4 luciferase reporter of c-Jun activation; assay type: cell-based; conditions: 1 μM, 16 hours
Text: To determine whether the cell-permeable peptides as defined herein could block JNK signaling in vivo, we used a heterologous GAL4 system. HeLa cells, cultured as described above, were co-transfected with the 5×GAL-LUC reporter vector together with the GAL-Jun expression construct (Stratagene) comprising the activation domain of c-Jun (amino acids 1-89) linked to the GAL4 DNA-binding domain. Activation of JNK was achieved by the co-transfection of vectors expressing the directly upstream kinases MKK4 and MKK7 (see Whitmarsh et al., Science 285: 1573 (1999)). Briefly, 3×10^5 cells were transfected with the plasmids in 3.5-cm dishes using DOTAP (Boehringer Mannheim) following instructions from the manufacturer. For experiments involving GAL-Jun, 20 ng of the plasmid was transfected with 1 μg of the reporter plasmid pFR-Luc (Stratagene) and 0.5 μg of either MKK4 or MKK7 expressing plasmids. Three hours following transfection, cell media were changed and TAT and TAT-IB1(s) peptides (1 μM) were added. The luciferase activities were measured 16 hours later using the “Dual Reporter System” from Promega after normalization to protein content. […] Because HeLa cells express JNK1 and JNK2 isoforms but not JNK3, we transfected cells with JNK3.

[3] = system: AP-1 DNA binding complex, HeLa cell nuclear extracts; test: Gel retardation assay with AP-1 probe; assay type: cell-based; conditions: in the presence of TNF-alpha
[4] = system: recombinant JNK1, JNK2 and JNK3; test: Solid phase kinase assay, phosphorylation of c-Jun, ATF2 and Elk1; assay type: biochemical; conditions: dose response 0-25 μM
Description: The effects of the peptides on JNKs-mediated phosphorylation of their target transcription factors were investigated in vitro. Recombinant and non activated JNK1, JNK2 and JNK3 were produced using a TRANSCRIPTION AND TRANSLATION rabbit reticulocyte lysate kit (Promega) and used in solid phase kinase assays with c-Jun, ATF2 and Elk1, either alone or fused to glutathione-S-transferase (GST), as substrates. Dose response studies were performed wherein L-TAT or L-TAT-IB1(s) peptides (0-25 μM) were mixed with the recombinant JNK1, JNK2, or JNK3 kinases in reaction buffer (20 mM Tris-acetate, 1 mM EGTA, 10 mM p-nitrophenyl-phosphate (pNPP), 5 mM sodium pyrophosphate, 10 mM p-glycerophosphate, 1 mM dithiothreitol) for 20 minutes. The kinase reactions were then initiated by the addition of 10 mM MgCl2 and 5 pCi ^33P-dATP and 1 μg of either GST-Jun (aa 1-89), GST-AFT2 (aa 1-96) or GST-ELK1 (aa 307-428). GST-fusion proteins were purchased from Stratagene (La Jolla, Calif.).
Ten μL of glutathione-agarose beads were also added to the mixture. Reaction products were then separated by SDS-PAGE on a denaturing 10% polyacrylamide gel. Gels were dried and subsequently exposed to X-ray films (Kodak). […] The ability of D-TAT, D-TAT-IB1(s) and L-TAT-IB1(s) peptides (0-250 μM dosage study) to inhibit GST-Jun (aa 1-73) phosphorylation by recombinant JNK1, JNK2, and JNK3 by were analyzed as described above. […]

[5] = system: JNKs from UV-light irradiated HeLa cells or IL-1 treated PTC cells; test: c-Jun phosphorylation by activated JNKs pulled down with GST-Jun; assay type: biochemical; conditions: 25 μM
Description: The effects of the L-TAT or L-TAT-IB1(s) peptides as defined herein on JNKs activated by stressful stimuli were evaluated using GST-Jun to pull down JNKs from UV-light irradiated HeLa cells or IL-1 treated PTC cells. PTC cells were cultured as described above. HeLa cells were cultured in DMEM medium supplemented with 10% Fetal Calf Serum, 100 μg/mL Streptomycin, 100 units/ml Penicillin and 2 mM Glutamine. One hour prior to being used for cell extract preparation, PTC cells were activated with IL-1 as described above, whereas HeLa cells were activated by UV-light (20 J/m^2). Cell extracts were prepared from control, UV-light irradiated HeLa cells and IL-1 treated TC-3 cells by scraping the cell cultures in lysis buffer (20 mM Tris-acetate, 1 mM EGTA, 1% Triton X-100, 10 mM p-nitrophenyl-phosphate, 5 mM sodium pyrophosphate, 10 mMP-glycerophosphate, 1 mM dithiothreitol). Debris was removed by centrifugation for five minutes at 15,000 rpm in an SS-34 Beckman rotor. One-hundred μg extracts were incubated for one hour at room temperature with one μg GST-jun (amino acids 1-89) and 10 μL of glutathione-agarose beads (Sigma). Following four washes with the scraping buffer, the beads were resuspended in the same buffer supplemented with L-TAT or L-TAT-IB1(s) peptides (25 μM) for 20 minutes. […]

Compound: CC(C)(C)[N+]([O-])=Cc1ccccc1 [PBN, Phenyl-N-tert-Butylnitrone, reference compound]
- decrease of mean ONL thickness vs untreated eyes ([1]; PBN i.p., Day 23): 16%
- ERG B-wave amplitude, percent of the baseline, Mean ± SD ([1]; rat, in vivo, ip, 50 mg/kg): 100 ± 18.6%

Compound: TDQSRPVQPFLNLTTPRKPRYTDPPRRRQRRKKRG ([dT][dD][dQ][dS][dR][dP][dV][dQ][dP][dF][dL][dN][dL][dT][dT][dP][dR][dK][dP][dR][dY][dT][dD][dP][dP][dR][dR][dR][dQ][dR][dR][dK][dK][dR]G) [D-TAT-IB1]
- IL-1 induced apoptosis after two days (TC-3 cells; IL-1 10 ng/ml): decreased IL-1 induced apoptosis to a similar extent as L-TAT-IB peptides

Compound: Fluorescein-labeled BSA: fluorescein labeled bovine serum albumin (1 μM BSA, 12 moles fluorescein/mole BSA), control
- entry into cells (TC-3 cell cultures): did not enter the cells

Compound: GRKKRRQRRRPPRPKRPTTLNLFPQVPRSQD (Description of sequence: L-TAT-IB1 (s) (see Table 1)) [L-TAT-IB1(s)]
- activation of c-Jun following MKK4 and MKK7 mediated activation of JNK (luciferase) [2]: blocked activation of c-Jun following MKK4 and MKK7 mediated activation of JNK
- formation of the AP-1 DNA binding complex [3]: decrease the formation of the AP-1 DNA binding complex
- long term (15 day) protection from IL-1 induced cell-death (TC-3 cells; IL-1 every two days): but not L-TAT-IB1(s), was able to confer long term (15 day) protection
- peptide dose giving nearly complete inhibition of c-Jun, ATF2 and Elk1 phosphorylation by JNKs [4]: 2.5 µM
- prevention of phosphorylation of c-Jun by activated JNKs [5]: efficiently prevented phosphorylation of c-Jun by activated JNKs
